Measurements published in patent US12473295B2, “Substituted straight chain spiro derivatives” (Janssen Pharmaceutica NV, priority 2019, dated 2025).
Structures can show the parent of a compound that is named as a salt. Where two headings read alike, the source gives them in different places.

How the values were obtained:
[1] = biological target: menin/MLL (terbium chelate-labeled menin, FITC-MBM1 peptide) (Homo sapiens (Human), UniProt O00255); test: Menin/MLL homogenous time-resolved fluorescence (HTRF) assay; format: binding;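 also: IC50 from percent inhibition of HTRF signal, normalized between wells without competitor and wells with a saturating competitor that displaces FITC-MBM1 from His-tagged menin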
Chain of menin/MLL (terbium chelate-labeled menin, FITC-MBM1 peptide) (O00255 other isoform, or with tags, fused parts or gaps): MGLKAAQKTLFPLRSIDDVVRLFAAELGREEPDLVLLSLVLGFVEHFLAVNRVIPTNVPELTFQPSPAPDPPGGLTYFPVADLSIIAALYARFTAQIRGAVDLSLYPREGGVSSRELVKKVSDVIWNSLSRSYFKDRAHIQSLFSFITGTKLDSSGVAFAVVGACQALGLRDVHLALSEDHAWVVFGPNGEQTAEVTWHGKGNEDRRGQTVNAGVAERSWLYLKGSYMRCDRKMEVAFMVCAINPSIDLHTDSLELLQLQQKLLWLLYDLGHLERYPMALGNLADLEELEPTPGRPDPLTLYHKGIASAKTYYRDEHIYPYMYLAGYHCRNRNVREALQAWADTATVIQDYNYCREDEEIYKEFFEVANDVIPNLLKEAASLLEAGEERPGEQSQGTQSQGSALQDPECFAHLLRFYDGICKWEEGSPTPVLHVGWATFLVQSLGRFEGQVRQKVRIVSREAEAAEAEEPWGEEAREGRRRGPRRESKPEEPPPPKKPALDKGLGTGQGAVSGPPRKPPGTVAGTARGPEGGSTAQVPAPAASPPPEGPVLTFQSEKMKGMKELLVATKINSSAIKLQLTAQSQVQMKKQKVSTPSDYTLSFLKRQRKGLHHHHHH

MOLM14 cells = test: Proliferation assay (spheroid growth, 8 days), MOLM14; format: cell-based, human; conditions: MOLM14, 8 days, read-out: spheroid assay_OneTime MOLM14 IC50;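 also: spheroid size read as confluence by live-cell imaging, compounds added at a range of concentrations with 0.3% DMSO, DMSO-treated wells = 0%, highest reference dose = low control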
OCI-AML3 cells = test: Proliferation assay (spheroid growth, 8 days), OCI-AML3; format: cell-based, human; conditions: OCI-AML3, 8 days
Outline: (§1)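 8-day spheroid growth in ultra-low attachment plates; seeding 200 cells (MOLM14, OCI-AML3) or 300 (KO-52); DMSO 0.3%. Day-8 imaging, confluence vs DMSO (0%) and top reference dose (baseline); IC50 by variable-slope fit.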

KO-52 cells = test: Proliferation assay (spheroid growth, 8 days), KO-52 control cell line; format: cell-based, human; conditions: read-out: spheroid assay_OneTime KO-52 IC50
Outline: as §1

MEIS1 mRNA = MEIS1 mRNA expression assay (Quantigene Singleplex) in MOLM14 cells; format: cell-based, human; conditions: 48 hours incubation;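 also: MEIS1 transcript levels read by probe hybridization and normalized to RPL28 mRNA, with IC50 fitted to fold changes across a rising compound concentration series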
[2] = Mouse PK (in vivo T1/2 and oral bioavailability); conditions: fasted male CD-1 mice, formulating agent HP-β-CD; for half-life: single IV 0.5 or 1.0 mg/kg; for bioavailability: single PO 5 mg/kg
Experimental: 3) Mouse PK (In Vivo T1/2 and Oral Bioavailability)
In vivo pharmacokinetics (PK) were assessed in fasted male CD-1 mice (age 6-8 weeks) following a single intravenous (IV, 0.5 or 1.0 mg/kg administered at 2.5 ml/kg) or oral (PO, 5 mg/kg administered at 10 ml solution/kg) dose of test article formulated in a 20% (w:vol) HP-β-CD solution or in Pyrogen free water.
Plasma and/or whole blood samples were collected from the dorsal metatarsal vein at desired timepoints via serial capillary microsampling (approx. 0.03 mL) using EDTA as an anticoagulant. Concentrations of compound in the plasma and blood samples were analyzed using a qualified LC-MS/MS method. In silico analysis of main pharmacokinetic parameters was performed using WinNonlin (Phoenix™, version 6.1) or similar software. (Results see Table 4)

[3] = Metabolic stability in human liver microsomes; format: in vitro ADME; conditions: human liver microsomes 0.5 mg/mL, 1 μM test compound, pH 7.4; for microsomal CLint at 1 μM: read-out: Human LM Clint
Experimental: (§2) 4) Metabolic Stability in Human/Mouse Liver Microsomes
(§3) The objective of this study is to measure in vitro metabolic stability of test compound(s) in human and mouse liver microsomes and provide quantitative information on the rate of metabolic turnover (i.e. determination of the apparent intrinsic clearance of test).
(§4) Test items were prepared at a stock concentration of 10 mM in DMSO. For determination of metabolic turnover, a final working solution was prepared by adding 2 μL of 10 mM DMSO stock solution for test compound or positive control compounds to 198 μL of acetonitrile (100 μM final concentration).
(§5) Incubations were performed as follows: First, liver microsomes were thawed on ice and a master solution containing liver microsomes in 100 mM PBS (phosphate-buffered saline) at pH 7.4 is prepared. Next, the liver microsomes solution was added to the incubation plates and 10 mM NADPH (Nicotinamide-adenine dinucleotide phosphate) was added (MW: 833.4 g/mol; Roche Diagnostics GmbH, Germany. Dissolved in phosphate buffer (100 mmol/L, pH 7.4)). The mixture was mixed for 10 seconds and pre-warmed in the incubation plate at 37° C. for 10 minutes. The metabolic reaction was initiated with the addition of 5 μL of the 100 μM working solution for test compound or positive control compounds to incubation plate (final test item concentration=1 μM). The reaction final mixture should contain 1 mM NADPH, 0.5 mg/mL microsomes protein and 1 μM test compound or positive control compound in 100 mM PBS at pH 7.4. The percentage of organic solvent in incubation mixture is 1% with DMSO ≤0.02%.
(§6) The reaction was quenched by transferring 50 μL of the incubated mixture at selected time points into the quenching plate containing 200 μL of cold methanol. After sampling of all the timepoints the quenching plate was centrifuged at 4000 rpm for 40 minutes to precipitate protein. A total of 90 μL of the supernatant was transferred to an analysis plate and ultra-pure H2O water is added into each well for LC/MS/MS analysis. All incubations and analysis were performed in duplicate.
(§7) All calculations were carried out using Microsoft Excel. The slope value, k, was determined by linear regression of the natural logarithm of the remaining percentage of the parent drug vs. incubation time curve.
(§8) The in vitro half-life (in vitro tin) was determined from the slope value: in vitro t1/2=−(0.693/k)
(§9) Conversion of the in vitro tin (in min) into the in vitro intrinsic clearance (in vitro CLint, in μL/min/mg proteins) was done using the following equation: […]

[4] = Metabolic stability in mouse liver microsomes; format: in vitro ADME; conditions: mouse liver microsomes 0.5 mg/mL, 1 μM test compound, pH 7.4; for microsomal CLint at 1 μM: read-out: Mouse LM Clint
Experimental: as §2, §3, §4, §5, §6, §7, §8, §9

[5] = HTRF-30 min incubation IC50, 30 min incubation

Compound	IC50 [1, 5] [nM]	IC50 (MOLM14 cells; Homo sapiens, MOLM-14, […]) [nM]	IC50 (OCI-AML3 cells; Homo sapiens, OCI-AML-3, […]) [nM]	IC50 (KO-52 cells; Homo sapiens, […]) [nM]	IC50 (MEIS1 mRNA; Homo sapiens, MOLM-14, 48 h) [nM]	half-life [2] [h]	bioavailability [2] [%]	microsomal CLint at 1 μM [4] [µL/min/mg]	other results
CC(C)[C@@H](CCCN(C)C)N1CC2(CCN(c3ncnnc3Oc3ccc(F)cc3C(=O)N(C(C)C)C(C)C)C2)C1 (single isomer, unassigned) [Compound 102, (*R)-2-((5(2-(6-(dimethylamino)-2-methylhexan-3-yl)-2,6-diazaspiro[3.4]octan-6-yl)-1,2,4-triazin-6-yl)oxy)-5-fluoro-N,N-diisopropylbenzamide fumarate]	0.11	16	110	> 15000	33	11	9.7		
CCN(C(=O)c1cc(F)ccc1Oc1nncnc1N1CCC2(C1)CN([C@H](CCO)C(C)C)C2)C(C)C (single isomer, unassigned) [Compound 214, (*R)—N-ethyl-5-fluoro-2-((5-(2-(1-hydroxy-4-methylpentan-3-yl)-2,6-diazaspiro[3.4]octan-6-yl)-1,2,4-triazin-6-yl)oxy)-N-isopropylbenzamide]									IC50 ([1]; read-out: HTRF-30 min incubation IC50, 30 min incubation): 0.49 nM; IC50 (MOLM14 cells): 120 nM; IC50 (OCI-AML3 cells): 380 nM; IC50 (KO-52 cells): > 15000 nM; IC50 (MEIS1 mRNA): 140 nM; Human LM Clint [3]: 44 µL/min/mg; Mouse LM Clint [4]: 80 µL/min/mg
CCN(C(=O)c1cc(F)ccc1Oc1nncnc1N1CCC2(C1)CN([C@H](CCCNC(C)=O)C(C)C)C2)C(C)C [Compound 6, (R)-2-((5(2-(6-acetamido-2-methylhexan-3-yl)-2,6-diazaspiro[3.4]octan-6-yl)-1,2,4-triazin-6-yl)oxy)-N-ethyl-5-fluoro-N-isopropylbenzamide formate]	0.61	480	1860	> 15000	360			28	microsomal CLint at 1 μM [3]: 35 µL/min/mg
CCN(C(=O)c1cc(F)ccc1Oc1nncnc1N1CCC2(C1)CN([C@H](CCCN[C@H](C)COC)C(C)C)C2)C(C)C.O=C(O)/C=C/C(=O)O [Compound 112]						6.2	4		
CCN(C(=O)c1cc(F)ccc1Oc1nncnc1N1CCC2(C1)CN([C@H](CCCNCCC(F)F)C(C)C)C2)C(C)C.O=C(O)/C=C/C(=O)O [Compound 114]						9.5	8.7		
CCN(C(=O)c1cc(F)ccc1Oc1nncnc1N1CCC2(C1)CN([C@H](CCCN(C)C(COC)COC)C(C)C)C2)C(C)C [Compound 161, (R)-2-((5-(2-(6-((1,3-dimethoxypropan-2-yl)(methyl)amino)-2-methylhexan-3-yl)-2,6-diazaspiro[3.4]octan-6-yl)-1,2,4-triazin-6-yl)oxy)-N-ethyl-5-fluoro-N-isopropylbenzamide fumarate]	0.23	16	55	> 15000	41			55	microsomal CLint at 1 μM [3]: 70 µL/min/mg
CCN(C(=O)c1cc(F)ccc1Oc1nncnc1N1CCC2(C1)CN([C@H](CCCNCCOC)C(C)C)C2)C(C)C [Compound 397, (R)-N-ethyl-5-fluoro-N-isopropyl-2-((5-(2-(6-((2-methoxyethyl)amino)-2-methylhexan-3-yl)-2,6-diazaspiro[3.4]octan-6-yl)-1,2,4-triazin-6-yl)oxy)benzamide fumarate]		15		> 15000				< 7.5	IC50 (OCI-AML3 cells; fumarate): 27 nM
